Results as given in the SangsterLogP compilation.

Assay: method code SF-AS, from DOI: 10.1002/jps.2600830428, PMID: 8046619
Details: pH 7.4
A logD of -1.54 was found for `O=c1nc(/N=C/N2CCOCC2)ccn1[C@H]1C[C@H](O)[C@@H](CO)O1` in this work. A logD of -1.66 was found for `O=c1nc(N=CN2CCOCC2)ccn1[C@@H]1O[C@H](CO)[C@@H](O)[C@@H]1O` in this work. A logD of -1.15 was found for `O=c1nc(N=CN2CCCC2)ccn1[C@@H]1O[C@H](CO)[C@@H](O)[C@@H]1O` in this work.
